Data as given in patent US4150970A, “Growth regulator for plants” (Board of Trustees of Michigan State University, priority 1977, dated 1979).
Entries after “also recorded” stand apart in the source; their conditions may differ.

Tests used:
Assay type in all cases: in vivo
[1] = test system: rice; experiment: Synthetic triacontanol on rice in nutrient cultures (Example III); settings: for Dry wt / Water Uptake: seven days
Protocol: Synthetic triacontanol in aqueous solution was applied to rice (4 replicates) in nutrient cultures and to "Chico III" tomatoes (6 replicates) grown in soil as previously described. The response of both rice and tomatoes to synthetic triacontanol after seven and six days respectively was similar to that of the natural triacontanol with the optimum rate at between 0.01 and 0.1 mg per liter, as summarized in the following table III:
^1 Treatments applied on filter paper, including control and placed i
nutrient solution. The solution was changed after 4 days. Seedlings
weighed 57 mg at initiation of test.

[2] = test system: IR-8 rice seedlings; experiment: Dry weight of rice seedlings in the dark with and without carbon dioxide (Example VII)
Protocol: (§1) Rice seed cv. IR-8, or Starbonnet was surface treated with 0.1 percent mercuric chloride and planted in 77 cc plastic cups containing vermiculite and watered with one-fourth Hoagland's nutrient solution containing 3 mM of nitrogen at pH 5.0. After 10 days, seedlings were transplanted to 220 cc specimen cups wrapped in aluminum foil and containing 180 cc of the same Hoagland's nutrient solution. Four seedlings were suspended in the solution with a sponge rubber disc. The plants were grown under a 8 h night at 25° C. and a 16 h day at 30° C. with 21 and 8 μwatts per cm^2 in the blue and red spectra respectively. In the test with varying light intensity the high light intensity was 30 13 and the low intensity was 15 and 8 μwatts per cm^2 for the blue and red spectra respectively. The nutrient solution was renewed every 2 or 3 days. After one week the plants were sorted for size and similar sized plants assigned to the same block for the experiment. Prior to the initiation of a test the plants in each cup were assigned treatment numbers by use of a random number table. […] Sixteen hours prior to a test the foil wrapped cups were tared, and filled with one-half Hoaglands solution containing 6 mM nitrogen. Eighteen μl of chloroform or chloroform containing 1.8 μg triacontanol were placed on 2 cm^2 of Whatman No. 1 filter papers, air dried and placed in the specimen cups. This concentration of 10 μg triacontanol/liter was used for all tests described in the following Examples except where specifically indicated to the contrary. Immediately prior to the test the cups were all brought up to 180 ml. including a set of cups without plants to measure evaporation.
In the tests comparing dry weight accumulation in plants grown either in the absence of CO2 or in normal air were grown as previously described except the test was initiated at the end of the 16 hour light period.
Plants were placed in 20×32 cm glass jars fitted with gas inlet and outlet ports. Three jars containing 2 cups each were used for a total of 24 plants for each treatment. The plants were ventilated with air or freed of CO2 by passing it through ascarite and then humidified. The flow rate was approximately 300 ml/minute. Carbon dioxide-free air was also used to purge the appropriate jars during a two minute period required to place the plants in the jars. The N analyses were done by the automated micro-Kjelldahl procedure of Ferrari (1960).
To determine the response of rice seedlings grown in the dark with and without carbon dioxide, 17 day old "IR-8" rice seedlings were grown in the dark for 6 hours. All the parameters of CO2 vs no CO2 and of triacontanol vs no triacontanol were run. The testing procedures were described above.

[3] = test system: IR-8 rice seedlings; experiment: Single versus multiple applications on rice seedlings (Example XI)
Protocol: as §1
Water uptake was measured by weighing the cups after removal of the plants and subtracting the tare and the water evaporated. For tests continued for more than one day, the solution used was measured every 3 days and new Hoagland's added and the pH maintained at 5.0 with sulfuric acid.
In this Example, the experiment determined the growth of "IR-8" rice seedlings by comparing a single application of triacontanol with multiple applications of triacontanol. Triacontanol was applied at the beginning of each indicated period.

[4] = test system: Larker barley; experiment: Single and multiple foliar applications on barley (Example XII)
Text: Tests were run, under the conditions above described, to determine the response of "Michigan 396" field corn and "Larker" barley to single and multiple foliar applications of triacontanol at […]. Plants were one week old at time of first treatment and 25 days old at time or harvest. Table XII states the test results.

[5] = test system: Heinz 1350 tomato seedlings; experiment: Tomato seedlings in nutrient culture, two application methods (Table XIII)
Text: These tests were run to determine the response of "Heinz 1350" tomato seedlings to applications of triacontanol in nutrient culture, in two different application methods.

[6] = test system: plants; experiment: Plant growth regulation (general statement); settings: crops

Q: Which Dry wt ([1]; 0.001 mg/liter) does the source give for CCCCCCCCCCCCCCCCCCCCCCCCCCCCCCO [Triacontanol, 1-triacontanol] here?
A: Its Dry wt is 103 mg/plant.

Q: And the Water Uptake ([1]; 0.001 mg/liter)?
A: Its Water Uptake is 37.0 g/plant.

Q: And the Dry wt ([1]; 0.010 mg/liter)?
A: Its Dry wt is 107 mg/plant.

Q: What about the Water Uptake ([1]; 0.010 mg/liter) of the same compound?
A: Its Water Uptake is 38.8 g/plant.

Q: What about the Dry wt ([1]; 0.100 mg/liter) of the same compound?
A: Its Dry wt is 106 mg/plant.

Q: What about the Water Uptake ([1]; 0.100 mg/liter) of the same compound?
A: The Water Uptake was 39.0 g/plant.

Q: And the Dry wt ([1]; 1.000 mg/liter)?
A: The Dry wt was 91 mg/plant.

Q: And the Water Uptake ([1]; 1.000 mg/liter)?
A: The Water Uptake was 33.4 g/plant.

Q: And the minimal effective concentration ([1]; Oryza sativa, soil, rice seedlings, nutrient cultures)?
A: Its minimal effective concentration is no less than 0.001 µg/mL.

Q: And the “CO2 fixation in the dark” value ([2]; dark 6 hours)?
A: Its value is “stimulated rice seedlings to fix CO2 in the dark; also recorded: stimulates plants, such as rice seedlings, to fix CO2 in the dark”.

Q: What about the “Dry Wt, Expanded leaves” value ([2]; with CO2, dark 6 hours) of the same compound?
A: The value was 26.7 mg/plant.

Q: What about the “Dry Wt, Roots” value ([2]; with CO2, dark 6 hours) of the same compound?
A: Its value is 25.6 mg/plant.

Q: And the “Dry Wt, Whole Plant” value ([2]; with CO2, dark 6 hours)?
A: The value was 71.9 mg/plant.

Q: And the “Dry Wt, Expanded leaves” value ([2]; without CO2, dark 6 hours)?
A: Its value is 22.4 mg/plant.

Q: And the “Dry Wt, Roots” value ([2]; without CO2, dark 6 hours)?
A: The value was 23.2 mg/plant.

Q: And the “Dry Wt, Whole Plant” value ([2]; without CO2, dark 6 hours)?
A: Its value is 62.0 mg/plant.

Q: What about the Dry wt ([3]; multiple applications) of the same compound?
A: Its Dry wt is 286 mg/seedling.

Q: And the “Water uptake per day” value ([3]; multiple applications, time period 0-2)?
A: Its value is 14.2 mL.

Q: And the “Water uptake per day” value ([3]; multiple applications, time period 3-5)?
A: Its value is 22.6 mL.

Q: And the “Water uptake per day” value ([3]; multiple applications, time period 6-7)?
A: The value was 33.5 mL.

Q: And the “Water uptake per day” value ([3]; multiple applications, time period 8-9)?
A: The value was 40.2 mL.

Q: What about the “Water uptake per day” value ([3]; multiple applications, time period 10-12, two cups dry at harvest) of the same compound?
A: Its value is 57.0 mL.

Q: And the Dry wt ([3]; single application)?
A: The Dry wt was 273 mg/seedling.

Q: And the “Water uptake per day” value ([3]; single application, time period 0-2)?
A: The value was 13.9 mL.

Q: And the “Water uptake per day” value ([3]; single application, time period 3-5)?
A: The value was 21.0 mL.

Q: And the “Water uptake per day” value ([3]; single application, time period 6-7)?
A: The value was 30.0 mL.

Q: And the “Water uptake per day” value ([3]; single application, time period 8-9)?
A: Its value is 35.8 mL.

Q: And the “Water uptake per day” value ([3]; single application, time period 10-12, two cups dry at harvest)?
A: The value was 56.6 mL.

Q: What about the “Dry wt, Barley” value ([4]; treated at 7, 12 and 18 days) of the same compound?
A: The value was 210 mg/shoot.

Q: What about the “Dry wt, Barley” value ([4]; treated at 7 and 12 days) of the same compound?
A: The value was 206 mg/shoot.

Q: What about the “Dry wt, Barley” value ([4]; treated at 12 and 18 days) of the same compound?
A: Its value is 214 mg/shoot.

Q: And the “Dry wt, Barley” value ([4]; treated at 7 days)?
A: The value was 205 mg/shoot.

Q: What about the “Dry wt, Barley” value ([4]; treated at 12 days) of the same compound?
A: Its value is 197 mg/shoot.

Q: What about the “Dry wt, Barley” value ([4]; treated at 18 days) of the same compound?
A: The value was 193 mg/shoot.

Q: What about the Dry wt ([5]; filter paper, 0.01) of the same compound?
A: The Dry wt was 382 mg/seedling.

Q: And the Dry wt ([5]; filter paper, 0.10)?
A: The Dry wt was 430 mg/seedling.

Q: What about the Dry wt ([5]; foliar, 0.01) of the same compound?
A: The Dry wt was 405 mg/seedling.

Q: And the Dry wt ([5]; foliar, 0.10)?
A: The Dry wt was 407 mg/seedling.

Q: And the “application rate that substantially increases crop growth” value [6]?
A: The value was no less than 0.4 grams per acre.
